{
  "source": "paper PMC8273037",
  "about": "(The Journal of Antibiotics, 2021)",
  "key": {"[1]": {"test_system": "Klebsiella pneumoniae ATCC 700603 (MDR)", "assay": "Antibacterial growth inhibition / MIC", "format": "cell-based", "conditions": "hit confirmation"}, "[2]": {"test_system": "Acinetobacter baumannii ATCC 19606", "assay": "Antibacterial growth inhibition / MIC", "conditions": "hit confirmation"}, "[3]": {"test_system": "Human cytomegalovirus, strain GDGr K17 (resistant isolate)", "assay": "HCMV resistant isolate cytopathic effect reduction assay", "format": "cell-based", "conditions": "for EC50 / EC90: Human betaherpesvirus 5, HFF; for EC50: read-out: EC50 (reduced viral replication by 50%); for EC90: read-out: EC90 (reduced viral replication by 90%)"}, "[4]": {"test_system": "Herpes simplex virus 1, strain E-377", "assay": "HSV-1 cytopathic effect reduction assay", "format": "cell-based"}, "S. aureus and MRSA": {"test_system": "S. aureus and MRSA", "conditions": "cited from earlier work"}, "P. aeruginosa": {"test_system": "P. aeruginosa", "conditions": "cited from earlier work"}, "E. coli": {"test_system": "E. coli", "conditions": "cited from earlier work"}, "HIV-1": {"test_system": "HIV-1", "conditions": "read-out: EC50, inhibition of infectivity of HIV-1 in vitro; cited from earlier work"}, "[5]": {"test_system": "Human papillomavirus 11, strain HE611260.1", "assay": "HPV-11 NanoLuc reporter replication assay", "format": "cell-based"}, "[6]": {"assay": "Cytotoxicity in C-33 A cells", "format": "cell-based", "conditions": "human"}},
  "note": "Values joined by “and” are separate entries in the source; they are usually repeats but may differ in a detail not shown here. Identical values can stand only once. Like-named read-outs stand apart in the source and are kept apart here.",
  "data": [
    {"compound": "Colistin sulfate", "values": [
      {"measurement": "MIC, K. pneumoniae", "setting": "[1]", "value": 0.15, "unit": "µM"},
      {"measurement": "MIC, A. baumannii", "setting": "[2]", "value": 0.15, "unit": "µM"}
    ]},
    {"compound": "Nc1nc(O)c2ncn(COC(CO)CO)c2n1", "note": "[Ganciclovir]", "values": [
      {"measurement": "EC50", "setting": "[3]", "value": "> 150", "unit": "µM"},
      {"measurement": "EC90", "setting": "[3]", "value": "> 150", "unit": "µM"}
    ]},
    {"compound": "Nc1nc2c(ncn2COCCO)c(=O)[nH]1", "note": "[Acyclovir]", "values": [
      {"measurement": "SI50 selectivity index (CC50/EC50)", "setting": "[4]; HSV-1 E-377, HFF cells", "value": ">172 and >181"},
      {"measurement": "EC90", "setting": "[4]; Human alphaherpesvirus 1, HFF, read-out: EC90 (reduced viral replication by 90%)", "value": "> 150", "unit": "µM"},
      {"measurement": "EC50", "setting": "[4]; read-out: EC50 (reduced viral replication by 50%), HSV-1 E-377, HFF cells", "value": 0.83, "unit": "µM"}
    ]},
    {"compound": "Nc1ccn(C[C@@H](CO)OCP(=O)(O)O)c(=O)n1", "note": "[Cidofovir]", "values": [
      {"measurement": "SI50 selectivity index (CC50/EC50)", "setting": "[3]; HCMV GDGr K17 (resistant isolate), HFF cells", "value": 120},
      {"measurement": "EC50", "setting": "[3]", "value": 0.92, "unit": "µM"},
      {"measurement": "EC90", "setting": "[3]", "value": "> 30", "unit": "µM"}
    ]},
    {"compound": "C[C@H]1[C@H](C)CC[C@]2(C(=O)O)CC[C@]3(C)C(=CC[C@@H]4[C@@]5(C)CC[C@H](O)C(C)(C)[C@@H]5CC[C@]43C)[C@H]12", "note": "[ursolic acid]", "values": [
      {"measurement": "MIC", "setting": "S. aureus and MRSA; MRSA strain", "value": 64, "unit": "µg/mL"}
    ]},
    {"compound": "CC1(C)CCC2(C(=O)NCCNCCN)CCC3(C)C(=CCC4C5(C)CCC(=O)C(C)(C)C5CCC43C)C2C1", "note": "(stereo not shown) [Oleanonic acid amide with diethylentriamine]", "values": [
      {"measurement": "MIC", "setting": "P. aeruginosa", "value": 50, "unit": "µM"},
      {"measurement": "MIC", "setting": "E. coli", "value": 25, "unit": "µM"}
    ]},
    {"compound": "C=C(C)[C@@H]1CC[C@]2(C(=O)O)CC[C@]3(C)[C@H](CC[C@@H]4[C@@]5(C)CC[C@H](O)C(C)(C)[C@@H]5CC[C@]43C)[C@@H]12", "note": "[betulinic acid]", "values": [
      {"measurement": "EC50", "setting": "HIV-1", "value": 1.4, "unit": "µM"}
    ]},
    {"compound": "3-amino-3,4-seco-28-amino-lup-4(23),20(29)-dien", "values": [
      {"measurement": "MIC", "setting": "S. aureus and MRSA; MRSA, bacteriostatic effect", "value": "≤ 0.25", "unit": "µg/mL"}
    ]},
    {"compound": "Nc1nc2c(ncn2CCOCP(=O)(O)O)c(=O)[nH]1", "note": "[9-[2-(Phosphonomethoxy)ethyl]guanine]", "values": [
      {"measurement": "SI50 selectivity index (CC50/EC50)", "setting": "[5]; HPV-11, C-33 A cells", "value": ">221"},
      {"measurement": "EC50", "setting": "[5]; human papillomavirus 11, C-33-A, read-out: EC50 (reduced viral replication by 50%)", "value": 0.68, "unit": "µM"},
      {"measurement": "EC90", "setting": "[5]; human papillomavirus 11, C-33-A, read-out: EC90 (reduced viral replication by 90%)", "value": 101, "unit": "µM"},
      {"measurement": "CC50", "setting": "[6]", "value": "> 150", "unit": "µM"}
    ]}
  ]
}
